Where two headings read alike, the source gives them in different places.

This is an account of results in patent publication US20120252773A1, “Method and composition for inhibiting cell proliferation and angiogenesis” (priority 2005, published 2012).

Assay [1] has as its system human endometrial Ishikawa cells. Briefly: Estrogenic activity, alkaline phosphatase, Ishikawa cell-based assay. To be noted: 72 hours. The protocol: Ishikawa cell based assays were run in parallel on human endometrial Ishikawa cells treated with compound (2) or with 2-methoxyestradiol. 2-Methoxyestradiol is a compound reported in the literature as an anti-angiogenic agent. Cells were cultured in 96-well plates for 48 hours in estrogen- and phenol red-free medium (DMEM/Hamm's F12 medium) containing 5% fetal bovine serum stripped of endogenous estrogens with dextran coated charcoal (Sigma). Compound (2) or other test compounds were then added to the cells and culturing was continued for an additional 72 hours. To the control cells (no (2)), 10^−9 M of […] was added. At the end of 72 hours, alkaline phosphatase activity was measured by adding 5 mM p-nitrophenyl phosphate, 0.24 mM MgCl2, and 1 M diethanolamine (pH 9.8) to the cells while the 96-well plates were kept on ice. The plates were then warmed to room temperature, and the yellow color from the production of p-nitrophenol was measured after 2-3 hours using an ELISA plate reader at a wavelength of 405 nm. The estrogenic activity was defined as the alkaline phosphatase activity stimulated by the test compounds alone as a percentage of that stimulated by estradiol at 10^−9 M. Stimulation by estradiol at 10^−9 M was taken as 100%.

Assay [2] concerns Human Dermal Microvascular Endothelial Cells (HDMVEC). Description: Growth inhibition of HDMVEC cells, MTT, 7 days. Type of assay: cell-based. To be noted: Endothelial cell. The method, then: (§1) To measure the inhibitory activity of (2) on growth of HDMVEC cells (Clonetics, San Diego, Calif.), 2,000 cells were seeded in each well of a 96-well plate in […] of EGM medium (Clonetics) supplemented with 5% fetal bovine serum (Sigma). The plate was incubated at 37° C. in a tissue culture incubator for 24 h, and then various concentrations of (2) dissolved in EGM were added to each well in 5-10 μl aliquots. Four wells were used for each concentration. Medium in each well was renewed with fresh test solution added every other day. After 7 days of culture, the viable cells were measured using reagents from an MTT kit (Promega Corporation, Madison, Wis.), using instructions provided by the supplier. The number of viable cells in treated wells relative to those in control wells gave the percentage of inhibition.
The procedures of Example 3 were carried out to evaluate the inhibitory effect of various compounds of the invention on the growth of HDMVEC cells (Clonetics, San Diego, Calif.).

Assay [3] has as its system Chick Chorioallantoic Membrane (CAM). Briefly: Chick chorioallantoic membrane (CAM) assay, blood vessel density. Type of assay: in vivo. Conditions: 12.5 μg per embryo in 0.5% methylcellulose, vs vehicle control. The method, then:
A CAM assay was conducted as previously described (K. Amin, J. Li, and W-R. Chao, Cancer Biol. Ther. 2: 173-178, (2003). Briefly, fresh fertile eggs were incubated in a standard egg incubator at 37° C. for 3 days. On Day 3, eggs were cracked under sterile conditions and embryos were placed into 20×100 mm sterile plastic Petri dishes and cultivated at 37° C. in an embryo incubator with a water reservoir on the bottom shelf. Air was continuously bubbled into the water reservoir using a small pump so that the humidity in the incubator was kept constant. On Day 6, a sterile silicon “o” ring was placed on each CAM, and test compound (2) dissolved in 0.5% methylcellulose was delivered into each “o” ring under sterile conditions. Embryos were returned to the incubator. Control embryos received 10 μL of vehicle alone, while 12.5 μg of (2) was delivered to test embryos. On Day 8, embryos were removed from the incubator and kept at room temperature while blood vessel density was determined under each “o” ring using an image capturing system at a magnification of 160×.

The test system of assay [4] is A549 human non-small cell lung cancer cells. Briefly: Cell growth inhibition, MTT, 7 days, A549. Type of assay: cell-based. To be noted: A549, 7 days, Example 15. The method, then:
as §1
Compound (2) was evaluated in several different human cancer cell lines for its effects on cell growth. […]
To measure the inhibitory activity of test articles on growth of NSCLC cells, 2,000 cells were seeded in each well of a 96-well plate in […] of RPMI-1640 medium supplemented with 2 mM glutamine and 10% fetal bovine serum (growth medium). […] After 7 days of culture, the viable cells were measured using reagents from MTT kit (Promega Corporation, Madison, Wis.), using instructions provided by the supplier. […]

Usually IC50 stands for the midpoint of a concentration-inhibition curve. Consider `C[C@@H]1Cc2cc(O)ccc2C2CCC3(C)/C(=C/COCCN(C)C)CCC3C21` (stereo partly drawn) [Compound (2), (E)-3-Hydroxy-7α-methyl-21-[(2-dimethylamino)ethoxy]-19-norpregna-1,3,5(10),17(20)-tetraene], for which the “estrogenic activity (alkaline phosphatase stimulation relative to estradiol at 10^−9 M)” value in assay [1] is recorded as “essentially no such activity”. Also, in assay [2] (168 h, 7 days of culture, MTT, read-out: IC50 value, growth of HDMVEC cells), the IC50 is about 80 nM. In assay [2] (HDMVEC growth, procedures of Example 3, read-out: Inhibitory Effect (IC50 Value)), the IC50 stood at 80 nM. Moreover, in assay [3], the blood vessel density result was “drastically decreased the blood vessel density”. In assay [4], the “growth of NSCLC cells” value was “inhibited the growth of NSCLC cells in a dose-response manner” and the “inhibitory activity compared with Cisplatin tested in parallel” value is listed as “much more potent than that of Cisplatin”.
